Measurements as given in the CheMixHub viscosity set.

Assay: xn = mol fraction of the nth substance listed

CC#N + CCCCO
viscosity [mPa·s]
Conditions	298.15 K	303.15 K	308.15 K	313.15 K	318.15 K	323.15 K
101 kPa, x1 = 0.055	2.123	1.695	1.365	–	–	–
101 kPa, x1 = 0.0999	–	1.696	1.517	1.364	1.231	1.111
101 kPa, x1 = 0.1178	1.764	1.422	1.159	–	–	–
101 kPa, x1 = 0.1952	1.449	1.186	0.978	–	–	–
101 kPa, x1 = 0.2	–	1.322	1.197	1.085	0.986	0.9
101 kPa, x1 = 0.2302	1.322	1.086	0.899	–	–	–
101 kPa, x1 = 0.2997	–	1.054	0.957	0.876	0.803	0.738
101 kPa, x1 = 0.3526	1.016	0.854	0.721	–	–	–
101 kPa, x1 = 0.4	–	0.842	0.781	0.723	0.667	0.619
101 kPa, x1 = 0.4775	0.792	0.681	0.585	–	–	–
101 kPa, x1 = 0.5	–	0.695	0.643	0.601	0.555	0.519
101 kPa, x1 = 0.5911	0.615	0.538	0.472	–	–	–
101 kPa, x1 = 0.5998	–	0.574	0.536	0.502	0.47	0.442
101 kPa, x1 = 0.6999	–	0.482	0.453	0.427	0.402	0.381
101 kPa, x1 = 0.7026	0.504	0.445	0.397	–	–	–
101 kPa, x1 = 0.7906	0.433	0.391	0.352	–	–	–
101 kPa, x1 = 0.8	–	0.413	0.391	0.374	0.354	0.336
101 kPa, x1 = 0.9	–	0.362	0.345	0.329	0.315	0.301
101 kPa, x1 = 0.9094	0.383	0.348	0.32	–	–	–
101.3 kPa, x1 = 0.1671	1.475	1.336	1.204	–	–	–
101.3 kPa, x1 = 0.311	1.029	0.937	0.849	–	–	–
101.3 kPa, x1 = 0.4362	0.77	0.706	0.65	–	–	–
101.3 kPa, x1 = 0.5462	0.605	0.566	0.535	–	–	–
101.3 kPa, x1 = 0.6436	0.484	0.457	0.431	–	–	–
101.3 kPa, x1 = 0.7303	0.441	0.408	0.391	–	–	–
101.3 kPa, x1 = 0.8082	0.403	0.381	0.361	–	–	–
101.3 kPa, x1 = 0.8784	0.387	0.367	–	–	–	–
101.3 kPa, x1 = 0.942	0.348	0.327	–	–	–	–

CC#N + CCCO
viscosity [mPa·s]
Conditions	293.15 K	298.15 K	303.15 K	308.15 K	313.15 K	323.15 K
101 kPa, x1 = 0.0674	–	1.557	1.267	1.035	–	–
101 kPa, x1 = 0.1534	–	1.243	1.027	0.845	–	–
101 kPa, x1 = 0.2933	–	0.903	0.761	0.645	–	–
101 kPa, x1 = 0.3889	–	0.738	0.631	0.54	–	–
101 kPa, x1 = 0.4881	–	0.622	0.539	0.469	–	–
101 kPa, x1 = 0.5995	–	0.519	0.459	0.407	–	–
101 kPa, x1 = 0.703	–	0.438	0.39	0.351	–	–
101 kPa, x1 = 0.7951	–	0.393	0.354	0.321	–	–
101 kPa, x1 = 0.909	–	0.361	0.329	0.303	–	–
101.3 kPa, x1 = 0.1388	–	1.295	1.166	1.053	0.983	–
101.3 kPa, x1 = 0.2787	–	0.922	0.842	0.769	0.706	–
101.3 kPa, x1 = 0.3856	–	0.747	0.695	0.634	–	–
101.3 kPa, x1 = 0.4939	–	0.615	0.574	0.53	–	–
101.3 kPa, x1 = 0.5945	–	0.522	0.498	0.465	–	–
101.3 kPa, x1 = 0.6887	–	0.463	0.436	0.413	–	–
101.3 kPa, x1 = 0.7735	–	0.421	0.399	0.38	–	–
101.3 kPa, x1 = 0.8539	–	0.391	0.374	0.355	–	–
101.3 kPa, x1 = 0.9294	–	0.365	0.352	0.334	–	–
101.32 kPa, x1 = 0.0214	2.052	–	1.623	–	1.298	1.052
101.32 kPa, x1 = 0.0926	1.636	–	1.329	–	1.089	0.8994
101.32 kPa, x1 = 0.131	1.467	–	1.195	–	0.9876	0.8269
101.32 kPa, x1 = 0.2287	1.114	–	0.9375	–	0.7852	0.665
101.32 kPa, x1 = 0.3661	0.8314	–	0.7	–	0.5983	0.5179
101.32 kPa, x1 = 0.4647	0.6986	–	0.5975	–	0.5164	0.451
101.32 kPa, x1 = 0.5532	0.5951	–	0.5163	–	0.4519	0.3984
101.32 kPa, x1 = 0.6088	0.5441	–	0.4725	–	0.4163	0.3701
101.32 kPa, x1 = 0.7151	0.4665	–	0.4106	–	0.3663	0.3284
101.32 kPa, x1 = 0.8071	0.4122	–	0.3683	–	0.3317	0.3003
101.32 kPa, x1 = 0.8778	0.3835	–	0.345	–	0.3126	0.2849
